Measured values: BigSolDB 2.1

NC(=NCCCCCCN=C(N)/N=C(\N)Nc1ccc(Cl)cc1)/N=C(\N)Nc1ccc(Cl)cc1
solubility (mole fraction)
Details	283.15 K	288.15 K	293.15 K	298.15 K	303.15 K	308.15 K	313.15 K	318.15 K	323.15 K
in 1,4-dioxane	–	0.000569	0.000674	0.000764	0.000888	0.00102	0.00117	0.00133	0.00153
in DMF	0.00795	0.00941	0.0111	0.0131	0.0153	0.018	0.0206	0.0241	0.0277
in ethanol	0.000405	0.000471	0.000539	0.000613	0.000706	0.000803	0.000914	0.00103	0.00117
in methanol	0.000656	0.000751	0.000846	0.000967	0.00108	0.00123	0.00137	0.00154	0.00173
in water	1.45e-06	2.03e-06	2.79e-06	3.84e-06	5.21e-06	7.06e-06	9.32e-06	1.23e-05	1.62e-05
